From US10092577B2, “Sterol derivatives for treating neurosensory hearing loss, and corresponding composition” (AFFICHEM, priority 2014, dated 2018)

What was measured:
[1] = tested on: spiral ganglion neurons (SGNs); test: Delayed treatment (after two weeks of artificial perilymph following neomycin): eABR thresholds; assay type: in vivo, guinea pigs; details: example 2, delayed treatment, 1 μM; from the fifth week; p<0.01 for DB
Description: The studies of examples 1 to 3 were performed on guinea pigs (250-500 g). All the animals were provided with a platinum-iridium electrode inserted into the cochlear in order to mimic a cochlear implant. The experiments were carried out in accordance with the protocol described by […] and collaborators (Shinohara et al., 2002, Proc. Nati. Acad. Sci. USA, 99, 1657-60). The procedure used was the same as in example 1, apart from the difference that, following the infusion of neomycin sulfate, the pumps were filled with artificial perilymph for two weeks. […] There was no eABR stimulation possible in the animals placed under the same conditions as defined above, but not treated by the products DA or DB.

[2] = tested on: spiral ganglion neurons (SGNs); test: Quantification of the density of the SGNs in Rosenthal's canal and histological analysis of cochlea slices; assay type: in vivo, guinea pigs
Description: The studies of examples 1 to 3 were performed on guinea pigs (250-500 g). All the animals were provided with a platinum-iridium electrode inserted into the cochlear in order to mimic a cochlear implant. The experiments were carried out in accordance with the protocol described by Raphael and collaborators (Shinohara et al., 2002, Proc. Nati. Acad. Sci. USA, 99, 1657-60).
After the final measurement of the eABR threshold, the animals were heavily anaesthetised, intraperitoneally, using sodium pentobarbital (25 mg/kg) and infused intracardially with a saline solution (37° C.), which eliminates blood, then with a cold glutaraldehyde solution (2.5% in a 0.1 M phosphate buffer), which fixes the tissues. The temporal bone was removed, then the bulla was opened to reveal the cochlea. A small window was opened in the apex of the cochlea and the membrane of the round window so as to be able to delicately wash the cochlea with the glutaraldehyde solution. The cochlea was then decalcified in a solution of EDTA (0.1 M in the phosphate buffer) so as to make it possible to make cuts. After decalcification, the cochlea was dehydrated and enclosed in “plastic JB-4” (Polyscience Inc, Warrington, Pa.). The cochlea was sectioned into slices 4 μm thick. […] The six sections of Rosenthal's channel of six slices were analysed for each group of animals (Sigma Pro Scan) so as to count the spiral ganglion neurons. […]

Row | Molecule | eABR thresholds, treated group versus control group (artificial perilymph) [1] | appearance of the axons of the SGNs (histological analysis, FIG. 5) ([2]; cochlea slices from the modiolus, axons not distinguishable in animals treated by AP) | number of SGNs compared to the control group treated with the artificial perilymph ([2]; animals of example 1 (early treatment), GDNF 1 μg/ml, P<0.001)
1 | CC(C)CCC[C@@H](C)[C@H]1CC[C@H]2[C@@H]3C[C@@H](NCCc4c[nH]cn4)[C@@]4(O)C[C@@H](O)CC[C@]4(C)[C@H]3CC[C@]12C [DA, 6β-[2-(1H-imidazol-4-yl)-ethylamino]-cholestane-3β,5α-diol] | no longer a significant difference |  | 
2 | CC(C)CCC[C@@H](C)[C@H]1CC[C@H]2[C@@H]3C[C@@H](NCCCNCCCCN)[C@@]4(O)C[C@@H](O)CC[C@]4(C)[C@H]3CC[C@]12C [DB, 6β-[3-(4-aminobutylamino)propylamino]-cholestane-3β,5α-diol] | significant difference | thin and long | 
3 | GDNF: glia cell-line derived neurotrophic factor (protein, UniProt P39905 78-211, looked up) Glial cell line-derived …: SPDKQMAVLPRRERNRQAAAANPENSRGKGRRGQRGKNRGCVLTAIHLNVTDLGLGYETKEELIFRYCSGSCDAAETTYDKILKNLSRNRRLVSDKVGQACCRPIAFDDDLSFLDDNLVYHILRKHSAKRCGCI |  |  | significant difference
